Data: patent US12655107B2 (The United States of America, as represented by the …, priority 2018, dated 2026)
Read-outs that look alike come from different tables or passages of the source.

Legend:
HCT116 = experiment: MTT cytotoxicity assay, HCT116; format: cell-based, human
Procedure: (§1) Cytotoxicity Assays. […] The cells were incubated with the tested compounds for 72 hours in a five-dose assay ranging from 0.01 to 100 μM concentration. After drug treatments, MTT solution was added to test the percentage growth of tumor cells.
(§2) The compounds were incubated with the cells for 72 hours in a five-dose assay ranging from 0.01 to 100 μM concentration. At the end of the incubation, the MTT solution was added to test the percentage growth of tumor cells.
(§3) For the drug treatment experiments, the cancer cells were treated with the compounds (predissolved in DMSO) at a five-dose assay ranging from 0.01 to 100 μM concentration. […] After 4 h incubation, the formazan crystal formed in the well was dissolved with […] of DMSO for optical density reading at 570 nm. The GI50 value was calculated by nonlinear regression analysis (GraphPad Prism).

DU145 = experiment: MTT cytotoxicity assay, DU145; format: cell-based, human
Procedure: as §1, §2, §3

A549 = experiment: MTT cytotoxicity assay, A549; format: cell-based, human; conditions: 72 h, Table 7, read-out: GI50 ± SC (μM) A-49
Procedure: as §1, §2, §3

MCF-7 = experiment: MTT cytotoxicity assay, MCF-7; format: cell-based, human
Procedure: as §2, §3

786-0 = experiment: NCI-60 cytotoxicity; format: cell-based, human; conditions: NCI-60 Renal Cancer, 48 h
Procedure: (§4) Cell growth inhibition (GI50 in Table 3) was calculated relative to cells without compound treatment and the time zero control.
(§5) Regarding Table 8, according to the NCI established procedures, the cells were incubated with 67 or 50 for 48 hours and stained with sulforhodamine B dye.

A498 = experiment: NCI-60 cytotoxicity; format: cell-based, human; conditions: NCI-60 Renal Cancer, 48 h
Procedure: as §4, §5

A549/ATCC = experiment: NCI-60 cytotoxicity; format: cell-based, human; conditions: NCI-60 Non-Small Cell Lung Cancer, 48 h
Procedure: as §4, §5

ACHN = experiment: NCI-60 cytotoxicity; format: cell-based, human; conditions: NCI-60 Renal Cancer, 48 h
Procedure: as §4, §5

BT-549 = experiment: NCI-60 cytotoxicity; format: cell-based, human; conditions: NCI-60 Breast Cancer, 48 h
Procedure: as §4, §5

CCRF-CEM = experiment: NCI-60 cytotoxicity; format: cell-based, human; conditions: NCI-60 Leukemia, 48 h
Procedure: as §4, §5

DU-145 = experiment: NCI-60 cytotoxicity; format: cell-based, human; conditions: read-out: GI50 (μM) DU-145; NCI-60 Prostate Cancer, 48 h
Procedure: as §4, §5

HCC-2998 = experiment: NCI-60 cytotoxicity; format: cell-based, human; conditions: NCI-60 Colon Cancer, 48 h
Procedure: as §4, §5

HCT-15 = experiment: NCI-60 cytotoxicity; format: cell-based, human; conditions: NCI-60 Colon Cancer, 48 h
Procedure: as §4, §5

HOP-92 = experiment: NCI-60 cytotoxicity; format: cell-based, human; conditions: NCI-60 Non-Small Cell Lung Cancer, 48 h
Procedure: as §4, §5

HT29 = experiment: NCI-60 cytotoxicity; format: cell-based, human; conditions: NCI-60 Colon Cancer, 48 h
Procedure: as §4, §5

IGROV1 = experiment: NCI-60 cytotoxicity; format: cell-based, human; conditions: NCI-60 Ovarian Cancer, 48 h
Procedure: as §4, §5

K-562 = experiment: NCI-60 cytotoxicity; format: cell-based, human; conditions: NCI-60 Leukemia, 48 h
Procedure: as §4, §5

KM12 = experiment: NCI-60 cytotoxicity; format: cell-based, human; conditions: NCI-60 Colon Cancer, 48 h
Procedure: as §4, §5

M14 = experiment: NCI-60 cytotoxicity; format: cell-based, human; conditions: NCI-60 Melanoma, 48 h
Procedure: as §4, §5

MALME-3M = experiment: NCI-60 cytotoxicity; format: cell-based, human; conditions: read-out: GI50 (μM) MALME-3M; NCI-60 Melanoma, 48 h
Procedure: as §4, §5

MDA-MB-468 = experiment: NCI-60 cytotoxicity; format: cell-based, human; conditions: NCI-60 Breast Cancer, 48 h
Procedure: as §4, §5

MOLT-4 = experiment: NCI-60 cytotoxicity; format: cell-based, human; conditions: NCI-60 Leukemia, 48 h
Procedure: as §4, §5

NCI-H226 = experiment: NCI-60 cytotoxicity; format: cell-based, human; conditions: NCI-60 Non-Small Cell Lung Cancer, 48 h
Procedure: as §4, §5

NCI-H23 = experiment: NCI-60 cytotoxicity; format: cell-based, human; conditions: NCI-60 Non-Small Cell Lung Cancer, 48 h
Procedure: as §4, §5

OVCAR-3 = experiment: NCI-60 cytotoxicity; format: cell-based, human; conditions: NCI-60 Ovarian Cancer, 48 h
Procedure: as §4, §5

OVCAR-8 = experiment: NCI-60 cytotoxicity; format: cell-based, human; conditions: NCI-60 Ovarian Cancer, 48 h
Procedure: as §4, §5

RPMI-8226 = experiment: NCI-60 cytotoxicity; format: cell-based, human; conditions: NCI-60 Leukemia, 48 h
Procedure: as §4, §5

SF-268 = experiment: NCI-60 cytotoxicity; format: cell-based, human; conditions: NCI-60 CNS Cancer, 48 h
Procedure: as §4, §5

SF-295 = experiment: NCI-60 cytotoxicity; format: cell-based, human; conditions: NCI-60 CNS Cancer, 48 h
Procedure: as §4, §5

SK-MEL-28 = experiment: NCI-60 cytotoxicity; format: cell-based, human; conditions: NCI-60 Melanoma, 48 h
Procedure: as §4, §5

SK-MEL-2 = experiment: NCI-60 cytotoxicity; format: cell-based, human; conditions: NCI-60 Melanoma, 48 h
Procedure: as §4, §5

SK-OV-3 = experiment: NCI-60 cytotoxicity; format: cell-based, human; conditions: NCI-60 Ovarian Cancer, 48 h
Procedure: as §4, §5

SN 12C = experiment: NCI-60 cytotoxicity; format: cell-based, human; conditions: NCI-60 Renal Cancer, 48 h
Procedure: as §4, §5

SNB-19 = experiment: NCI-60 cytotoxicity; format: cell-based, human; conditions: NCI-60 CNS Cancer, 48 h
Procedure: as §4, §5

SR = experiment: NCI-60 cytotoxicity; format: cell-based, human; conditions: NCI-60 Leukemia, 48 h
Procedure: as §4, §5

SW-620 = experiment: NCI-60 cytotoxicity; format: cell-based, human; conditions: NCI-60 Colon Cancer, 48 h
Procedure: as §4, §5

TK-10 = experiment: NCI-60 cytotoxicity; format: cell-based, human; conditions: NCI-60 Renal Cancer, 48 h
Procedure: as §4, §5

NCI-60 cell lines = experiment: NCI-60 cytotoxicity, mean graph midpoint; conditions: read-out: GI50 (μM) MGM; mean graph midpoint of all cell lines, 48 h, sulforhodamine B
[1] = 72 h, Table 7, read-out: GI50 ± SC (μM) HCT116
[2] = 72 h, Table 7, read-out: GI50 ± SC (μM) DU145
[3] = 72 h, Table 7, read-out: GI50 ± SC (μM) MCF-7

## COc1cc2c(=O)n(CCN)c3c4cc5c(cc4ccc3c2cc1OC)OCO5 [Compound 67, 12-(2-aminoethyl)-2,3-dimethoxy-[1,3]dioxolo[4′,5′:4,5]benzo[1,2-c]phenanthridin-13(12-H)-one]
HCT116; [1]
  GI50: 0.29 ± 0.019 µM
DU145; [2]
  GI50: 0.014 ± 0.001 µM
A549
  GI50: 0.98 ± 0.014 µM
MCF-7; [3]
  GI50: 0.1 ± 0.001 µM
786-0
  GI50: 0.464 µM
A498
  GI50: 1.23 µM
A549/ATCC
  GI50: 0.584 µM
ACHN
  GI50: 0.366 µM
BT-549
  GI50: 0.918 µM
CCRF-CEM
  GI50: 0.15 µM
DU-145
  GI50: 0.527 µM
HCC-2998
  GI50: 1.02 µM
HCT-15
  GI50: 0.42 µM
HOP-92
  GI50: 3.56 µM
HT29
  GI50: 0.168 µM
IGROV1
  GI50: 0.5 µM
K-562
  GI50: 0.161 µM
KM12
  GI50: 1.1 µM
M14
  GI50: 0.324 µM
MALME-3M
  GI50: 0.613 µM
MDA-MB-468
  GI50: 0.157 µM
MOLT-4
  GI50: 0.0633 µM
NCI-H226
  GI50: 1.34 µM
NCI-H23
  GI50: 0.451 µM
OVCAR-3
  GI50: 0.826 µM
OVCAR-8
  GI50: 0.93 µM
RPMI-8226
  GI50: 0.257 µM
SF-268
  GI50: 0.442 µM
SF-295
  GI50: 0.279 µM
SK-MEL-28
  GI50: 3.05 µM
SK-MEL-2
  GI50: 3.01 µM
SK-OV-3
  GI50: 1.24 µM
SN 12C
  GI50: 0.739 µM
SNB-19
  GI50: 0.398 µM
SR
  GI50: 0.0907 µM
SW-620
  GI50: 0.243 µM
TK-10
  GI50: 1.35 µM
NCI-60 cell lines
  GI50: 0.525 µM

## CNCCn1c(=O)c2cc(OC)c(OC)cc2c2ccc3cc4c(cc3c21)OCO4 [Compound 50, 2,3-dimethoxy-12-(2-(methylamino)ethyl)-[1,3]dioxolo[4′5′:4,5]benzo[1,2-c]phenanthridin-13(12H)-one]
HCT116; [1]
  GI50: 0.036 µM
HCT116; drug-resistance panel, read-out: GI50 ± SD (μM) Parental cell line HCT116
  GI50: 0.036 ± 0.003 µM
DU145; [2]
  GI50: 0.002 µM
DU145; read-out: GI50 ± SD (μM) Parental cell line DU-145, drug-resistance panel
  GI50: 0.002 ± 0.001 µM
A549
  GI50: 0.97 µM
MCF-7; [3]
  GI50: 0.09 µM
MCF-7; drug-resistance panel, read-out: GI50 ± SD (μM) Parental cell line MCF-7
  GI50: 0.1 ± 0.001 µM
786-0
  GI50: 0.0703 µM
A498
  GI50: 0.127 µM
A549/ATCC
  GI50: 0.0948 µM
ACHN
  GI50: 0.0856 µM
BT-549
  GI50: 0.202 µM
CCRF-CEM
  GI50: 0.0201 µM
DU-145
  GI50: 0.13 µM
HCC-2998
  GI50: 0.156 µM
HCT-15
  GI50: 0.116 µM
HOP-92
  GI50: 0.184 µM
HT29
  GI50: 0.0508 µM
IGROV1
  GI50: 0.145 µM
K-562
  GI50: 0.0394 µM
KM12
  GI50: 0.238 µM
M14
  GI50: 0.0581 µM
MALME-3M
  GI50: 0.174 µM
MDA-MB-468
  GI50: 0.0599 µM
MOLT-4
  GI50: 0.0234 µM
NCI-H226
  GI50: 0.172 µM
NCI-H23
  GI50: 0.0906 µM
OVCAR-3
  GI50: 0.166 µM
OVCAR-8
  GI50: 0.132 µM
RPMI-8226
  GI50: 0.0763 µM
SF-268
  GI50: 0.0903 µM
SF-295
  GI50: 0.0346 µM
SK-MEL-28
  GI50: 0.573 µM
SK-MEL-2
  GI50: 0.393 µM
SK-OV-3
  GI50: 0.157 µM
SN 12C
  GI50: 0.171 µM
SNB-19
  GI50: 0.116 µM
SR
  GI50: 0.0173 µM
SW-620
  GI50: 0.0658 µM
TK-10
  GI50: 0.316 µM
NCI-60 cell lines
  GI50: 0.0977 µM
